Measurements as given in the supplement of paper PMC10307832.

Assays:
Test in all cases: relative viability (nuclei count vs DMSO), 5 days (fraction); higher = more cells survive
[1] = compound: Cc1ccc(F)c(NC(=O)Nc2ccc(-c3cccc4[nH]nc(N)c34)cc2)c1 [Linifanib] + NC(=O)Nc1cc(-c2cccc(F)c2)sc1C(=O)N[C@H]1CCCNC1 [AZD7762] (partner 0.2 µM)
In short: (§1)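 Lung cancer cell lines were pin-tool dosed in 1536-well plates on the day after seeding, with either a lone drug or a fixed anchor-drug dose plus five library-drug doses (not always all listed) in √10 steps. Nuclei were counted on 4× images after 5 days. Relative viability is the ratio of treated-well to vehicle-well nuclei counts, with each value a median of duplicate plates.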

[2] = compound: Cc1ccc(F)c(NC(=O)Nc2ccc(-c3cccc4[nH]nc(N)c34)cc2)c1 [Linifanib] + O=C(CCCCCCC(=O)Nc1ccccc1)NO [Vorinostat] (partner 1 µM)
In short: as §1

[3] = compound: Cc1ccc(F)c(NC(=O)Nc2ccc(-c3cccc4[nH]nc(N)c34)cc2)c1 [Linifanib] + CS(=O)(=O)N1CCN(Cc2cc3nc(-c4cccc5[nH]ncc45)nc(N4CCOCC4)c3s2)CC1 [Pictilisib] (partner 1 µM)
In short: as §1

[4] = compound: Cc1ccc(F)c(NC(=O)Nc2ccc(-c3cccc4[nH]nc(N)c34)cc2)c1 [Linifanib] + Nc1ncn([C@H]2C[C@H](O)[C@@H](CO)O2)c(=O)n1 [Decitabine] (partner 2 µM)
In short: as §1

[5] = compound: Cc1ccc(F)c(NC(=O)Nc2ccc(-c3cccc4[nH]nc(N)c34)cc2)c1 [Linifanib] + C[C@]1(O)C[C@@H](c2nc(-c3ccc4ccc(-c5ccccc5)nc4c3)c3c(N)nccn32)C1 [Linsitinib] (partner 1 µM)
In short: as §1

[6] = compound: Cc1ccc(F)c(NC(=O)Nc2ccc(-c3cccc4[nH]nc(N)c34)cc2)c1 [Linifanib] + Cc1nc(Nc2ncc(C(=O)Nc3c(C)cccc3Cl)s2)cc(N2CCN(CCO)CC2)n1 [Dasatinib] (partner 0.075 µM)
In short: as §1

Cell Line	relative viability ([1]; first compound 0.03162 µM)	relative viability ([1]; first compound 0.1 µM)	relative viability ([1]; first compound 0.3162 µM)	relative viability ([2]; first compound 0.03162 µM)	relative viability ([2]; first compound 0.1 µM)	relative viability ([2]; first compound 0.3162 µM)	relative viability ([3]; first compound 0.03162 µM)	relative viability ([3]; first compound 0.1 µM)	relative viability ([3]; first compound 0.3162 µM)	relative viability ([4]; first compound 0.03162 µM)	relative viability ([4]; first compound 0.1 µM)	relative viability ([4]; first compound 0.3162 µM)	relative viability ([5]; first compound 0.03162 µM)	relative viability ([5]; first compound 0.1 µM)	relative viability ([5]; first compound 0.3162 µM)	relative viability ([6]; first compound 0.03162 µM)	relative viability ([6]; first compound 0.1 µM)	relative viability ([6]; first compound 0.3162 µM)
NCI-H1651	0.428	0.483	0.544	0.688	0.561	0.573	0.591	0.582	0.355	0.616	0.592	0.517	0.997	1.14	0.9	0.499	0.393	0.398
LCLC-103H	0.892	0.721	0.792	0.848	0.764	0.734	0.71	0.596	0.693	0.75	0.667	0.696	1.13	1.07	0.978	0.434	0.621	0.399
LXF-289	1.11	1.15	0.934	0.85	0.762	0.807	0.849	0.874	0.784	0.376	0.355	0.326	0.989	1.02	0.972	0.29	0.288	0.236
NCI-H2023				0.655	0.807	0.612	0.221	0.297	0.263	0.228	0.228	0.203	0.681	0.676	0.652	0.543	0.681	0.565
NCI-H650	0.947	0.99	0.675	0.513	0.409	0.358	0.777	0.905	0.871	0.371	0.355	0.312	1	1.07	0.851	0.461	0.451	0.444
NCI-H1395	0.39	0.431	0.395	0.824	0.71	0.633	0.676	0.715	0.525	0.725	0.753	0.698	1.06	1.08	1.09	0.3	0.394	0.405
NCI-H322M	0.594	0.581	0.552	0.848	0.914	0.876	0.513	0.491	0.557	0.732	0.697	0.77	1	0.865	0.838	0.253	0.256	0.216
NCI-H23	0.259	0.287	0.31	0.771	0.688	0.566	0.542	0.524	0.523	0.355	0.308	0.343	0.536	0.798	0.475	0.736	0.928	0.84
ABC-1	0.869		0.767	1.19	1.31	0.906	0.759	0.953	0.742	0.961	0.942	0.95	0.825	1.03	0.788	0.546	0.555	0.589
NCI-H3122	1.01	1.04	0.977	1.12	1.09	0.927	0.598	0.648	0.577	0.442	0.418	0.487	0.997	0.986	1.04	0.908	0.908	0.877
EPLC-272H	0.226	0.448	0.205	0.522	0.467	0.513	0.355	0.324	0.28	0.352	0.435	0.362	1.04	1.2	1.15	0.324	0.418	0.51
NCI-H1793	0.269	0.844	0.541	0.777	0.796	0.745	0.336	0.285	0.332	0.486	0.412	0.586	0.897	0.976	0.817	0.394	0.439	0.406
COR-L 105				0.86	0.809	0.796	0.422	0.437	0.388	0.602	0.73	0.585	0.87	0.978	0.715	0.416	0.361	0.322
LK-2	0.618	0.504	0.376	0.286	0.529	0.283	0.495	0.537	0.489	0.305	0.365	0.224	0.516	0.502	0.536	0.308	0.349	0.403
NCI-H1792	0.789	0.757	0.588				0.213	0.311	0.333	0.525	0.643	0.464	0.386	0.522	0.535	0.622	0.774	0.819
NCI-H2347	0.822	0.803	0.653	0.73	0.773	0.665	0.863	0.987	0.817	0.622	0.616	0.598	0.994	0.96	0.954	0.356	0.399	0.284
LOU-NH91	0.752	0.816	0.739	0.969	0.975	0.943	0.498	0.523	0.557	0.812	0.785	0.814	0.899	1.01	0.954	0.61	0.612	0.558
NCI-H1355	0.648	0.765	0.792	0.647	0.68	0.682	0.463	0.401	0.433	0.352	0.387	0.338	0.843	0.876	0.852	0.76	0.859	0.697
